Reference: patent US20180319786A1, “INHIBITOR OF THE P2X7 RECEPTOR” (H. Lundbeck A/S, priority 2015, published 2018)

Experiments:
[1] = target: T1, human P2X7 receptors (Homo sapiens, UniProt Q99572); test: P2X7 FLIPR assay; assay type: cell-based; details: Human P2X7 in HEK293 cells, BzATP 8 μM, Ca2+ mobilization
T1 construct: expressed in transfected cells; host or cells: HEK293
T1 sequence (Q99572 1-595): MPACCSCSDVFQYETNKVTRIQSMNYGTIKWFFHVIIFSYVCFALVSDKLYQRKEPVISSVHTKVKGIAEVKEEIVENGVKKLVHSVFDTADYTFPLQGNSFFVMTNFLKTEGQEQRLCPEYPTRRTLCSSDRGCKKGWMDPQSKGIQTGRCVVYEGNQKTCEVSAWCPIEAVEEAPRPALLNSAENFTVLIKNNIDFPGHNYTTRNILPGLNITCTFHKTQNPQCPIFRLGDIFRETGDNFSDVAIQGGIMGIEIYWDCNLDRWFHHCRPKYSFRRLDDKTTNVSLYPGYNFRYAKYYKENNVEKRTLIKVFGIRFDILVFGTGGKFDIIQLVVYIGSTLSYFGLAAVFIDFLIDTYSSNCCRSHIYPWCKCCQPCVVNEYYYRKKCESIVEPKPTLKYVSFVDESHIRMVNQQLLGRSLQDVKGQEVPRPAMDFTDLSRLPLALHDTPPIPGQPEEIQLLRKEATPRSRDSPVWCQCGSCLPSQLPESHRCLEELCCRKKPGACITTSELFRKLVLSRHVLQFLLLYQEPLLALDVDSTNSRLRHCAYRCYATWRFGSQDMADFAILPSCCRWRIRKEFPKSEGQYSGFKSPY
Method: HEK293 cells stably expressing either human, mouse, or rat P2X7 receptors were plated in 384-well poly-D-lysine-coated black FLIPR plates (Greiner One, Cat #781946) using 1.5% FBS media 24 hours before the assay. Sucrose buffer, pH 7.4 was used for the human-P2X7 assay (5 mM of potassium chloride, 9.6 mM NaH2PO4.2H2O, 25 mM Hepes, 0.5 mM CaCl2, 5 mM glucose, 280 mM sucrose and 1.0 mM probenecid (Sigma, St. Louis, Mo.)). Hank's balanced salt solution buffer, pH 7.4 was used for the rat-P2X7 assay (1×HBSS buffer supplemented with 20 mM Hepes plus 2.5 mM probenecid (Sigma, St. Louis, Mo.) and 0.05% bovine serum albumin After removing the media, the plates were loaded with 30 μL of Fluo-4 NW (Molecular Probes, F36206), and were incubated at 37° C. for 30 min in a humidified chamber (5% CO2/95% air), and for 30 min at RT. Mobilization of intracellular Ca^+2 in response to different ligands was measured online using the FLIPR Tetra reader. In the assay, baseline fluorescence was measured for 15 seconds, then 15 μL of 4× compounds (40 μM) was added, fluorescence was monitored for 3 min for agonist activity, 15 μL of 4×BzATP (hP2X7 1×8 μM, rP2X7 1×15 μM) was added and after a 30 min incubation at room temperature the fluorescence was read for 3 min for IC50 determination.

[2] = test system: CFA inflamed rats; test: CFA-induced inflammatory hyperalgesia (paw pressure threshold); assay type: in vivo, rat
Method: (§1) Male Sprague Dawley rats (Charles River, Germany) weighing 250-300 g on the day of gabapentin administration were used (n=8-10 per group). The animals were housed in Macrolon III cages (20×14×18 cm or 20×40×18 cm; in groups of 3-5 per cage according to weight) containing wood-chip bedding material (3×1×4 mm) in an air-conditioned building with controlled environmental parameters (relative humidity 55±15%, temperature 20±2° C., and light from 06.00 to 19.00 h). Food and water were available ad libitum. The rats were allowed to habituate to the housing facilities for at least one week prior to being assigned to behavioral experiments whereupon they were randomly distributed across treatment groups. All experiments were performed according to the Ethical Guidelines of the International Association for the Study of Pain and the Danish Committee for Experiments on Animals.
Individual rats received a subcutaneous injection of CFA (50% in saline, 100 μl total volume, Sigma Aldrich) into the plantar surface of the hindpaw. All rats were then immediately returned to their homecage. The day prior to this (pre-CFA baseline response), and then again 24 h post CFA injection (post-CFA baseline response), hindpaw paw pressure thresholds were measured to obtain an index of evoked mechanical hyperalgesia [Ref: Munro, G., et al., Neuropharmacology, 2011. 61(1-2): p. 121-132.1. To do this, the investigator gently restrained the rat prior to the application of progressively increasing mechanical pressure to the mid hindpaw region using an electronic version of the Randall-Selitto device (HTC, U.S.A.) The point at which the rat attempted to make a reflex hindpaw withdrawal which in some instances was followed by vocalization was recorded as the paw pressure threshold (g). […] Thereafter, CFA inflamed rats received oral administration of (S)-N-(2-(4-chlorophenyl)-2-morpholinoethyl)-2-(pyrimidin-2-yl)-4-(trifluoromethyl)thiazole-5-carboxamide or vehicle with the investigator blinded to treatment and the paw pressure threshold measured again 60 minutes later.

[3] = test system: SNI rats; test: SNI model of neuropathic pain (von Frey mechanical allodynia); assay type: in vivo, rat; details: for reversal of mechanical hypersensitivity: SNI rats 3-4 weeks post injury
Method: as §1
A spared nerve injury (SNI) was performed in rats (body weight 180-220 g at the time of surgery) as described previously [Decosterd, I. and C. J. Woolf, Pain, 2000. 87(2): p. 149-581. Anaesthesia was induced and maintained by 2% isoflurane (Baxter A/S, Alleroed, Denmark), combined with oxygen (30%) and nitrous oxide (68%). Next, the skin of the lateral left thigh was incised and the cranial and caudal parts of the biceps femoris muscle were separated and held apart by a retractor to expose the sciatic nerve and its three terminal branches: the sural, common peroneal and tibial nerves. The tibial and common peroneal nerves were tightly ligated with 4/0 silk and 2-3 mm of the nerve distal to the ligation was removed. Any stretching or contact with the intact sural nerve was avoided. […] The presence of mechanical allodynia was assessed using a series of calibrated von Frey hairs (lower limit=0.06 and upper limit=13.5 g, Stoelting Co, Wood Dale Ill.), which were applied to the lateral aspect of the plantar surface of the hindpaw with increasing force until an individual filament used just started to bend. […]

[4] = test system: CCI animals; test: Chronic constrictive injury (CCI) model of neuropathic pain (von Frey PWT); assay type: in vivo, rat; details: 100 mg/kg, PWT 120 minutes following administration, p<0.05
Method: Male Sprague Dawley rats (Harlan) were used in the study. Upon receipt, rats were group housed with 2-3 per cage in standard cages. Rats were allowed to acclimate for up to 1 week prior to surgery. All rats were examined and weighed prior to initiation of the study to assure adequate health and suitability. During the course of the study, 12/12 light/dark cycles were maintained. The room temperature was maintained between 20° C. and 23° C. with a relative humidity maintained around 50%. Chow and water were provided ad libitum for the duration of the study. All testing was performed during the animals' light cycle phase. Rats were single housed after surgery.
This surgery was performed according to Bennett and Xie (1988). […] Each rat was monitored until awake and moving freely around the recovery chamber. […]
Paw withdrawal from a mechanical stimulus was measured by applying von Frey filaments of ascending bending force to the plantar surface of the hind paws (ipsilateral and contralateral). Baseline and post-treatment withdrawal threshold values for non-noxious mechanical sensitivity were evaluated using von Frey filaments (Semmes-Weinstein filaments, Stoelting, Wood Dale, Ill., USA) of varying stiffness (0.4, 0.7, 1.2, 2.0, 3.6, 5.5, 8.5, 10, 15, 26 g). […]
Data were analyzed by Analysis of variance (ANOVA), followed by post-hoc comparisons when appropriate. […]

O=C(NCC(c1ccc(Cl)cc1)N1CCOCC1)c1sc(-c2ncccn2)nc1C(F)(F)F (racemic) [Compound (III), (±)-N-(2-(4-chlorophenyl)-2-morpholinoethyl)-2-(pyrimidin-2-yl)-4-(trifluoromethyl)thiazole-5-carboxamide]
IC50 [1]: 32 ± 13 nM

O=C(NC[C@H](c1ccc(Cl)cc1)N1CCOCC1)c1sc(-c2ncccn2)nc1C(F)(F)F [Compound (I), (S)-N-(2-(4-chlorophenyl)-2-morpholinoethyl)-2-(pyrimidin-2-yl)-4-(trifluoromethyl)thiazole-5-carboxamide]
IC50 [1]: 12 ± 10 nM
reversal of mechanical hyperalgesia ([2]; 30 mg/kg dose, oral, paw pressure threshold 60 minutes later, 24 h post CFA): 62 % reversal
effect on mechanical hyperalgesia ([2]; oral, F(4.49)=30.692, P<0.001): significantly reversed
reversal of mechanical hypersensitivity ([3]; 30 and 100 mg/kg tested, dose of this value not stated): 108 % reversal
effect on mechanical hypersensitivity ([3]; 30 and 100 mg/kg, F(3.47)=12.522, P<0.001): dose dependently reversed
PWT compared to vehicle treatment [4]: significantly increased

O=C(NC[C@@H](c1ccc(Cl)cc1)N1CCOCC1)c1sc(-c2ncccn2)nc1C(F)(F)F [Compound (II), (R)-N-(2-(4-chlorophenyl)-2-morpholinoethyl)-2-(pyrimidin-2-yl)-4-(trifluoromethyl)thiazole-5-carboxamide]
IC50 [1]: 89 ± 13 nM

O=C(O)Cc1ccccc1Nc1c(Cl)cccc1Cl [diclofenac, reference compound]
reversal of mechanical hyperalgesia ([2]; NSAID comparator, dose not given): 84 % reversal

NCC1(CC(=O)O)CCCCC1 [gabapentin, reference compound]
reversal of mechanical hypersensitivity ([3]; 100 mg/kg dose): 132 % reversal
PWT compared to vehicle treatment [4]: significantly increased
